Data on 1 compound can be found in patent publication EP4744665A1, “COMBINATION OF POLQ INHIBITOR COMPOUND AND ANTI-CANCER THERAPEUTIC AGENT OR RADIOTHERAPY” (Simcere Zaiming Pharmaceutical Co., Ltd., priority 2023, dated 2025).

One data set has as its system DLD-1 BRCA2 (-/-). Kind of data set: Combined use with combination drug, matrix study, Bliss Independence model (Cell Titer Glo, 7 days). Type of data set: cell-based. As for the experimental part: (§1) DLD-1 colorectal adenocarcinoma cells, DLD-1 BRCA2 (-/-) colorectal adenocarcinoma cells, SHP-77 human small cell lung cancer cells, NCI-H82 human small cell lung cancer cells, LNCAP prostate cancer cells, KURAMOCHI human ovarian cancer cells, A2780 human ovarian cancer cells, and NCI-H23 non-small cell lung cancer cells were cultured in a 1640 medium containing 10% fetal bovine serum. SKOV3 human ovarian cancer cells were cultured in a McCoy's 5A (modified) medium containing 10% fetal bovine serum. OVCAR3 ovarian cancer cells were cultured in a 1640 medium containing 20% fetal bovine serum and 10 µg/mL bovine insulin. MDA-MB-436 breast cancer cells (natural BRCA1 mutation) and A549 non-small cell lung cancer cells were cultured in a DMEM medium containing 10% fetal bovine serum. Capan-1 human pancreatic cancer cells (natural BRCA2 mutation) were cultured in an IMDM medium containing 20% fetal bovine serum. The cells were all cultured at 37 °C with 5% CO2. Cells at the logarithmic growth phase were available for the experiment.
(§2) 100 µL of the cell medium was added to rows A and H and columns 1 and 12 of a 96-well cell culture plate. Cultured cells were resuspended (adherent cells were digested with trypsin) and counted to give information on cell density and viability. The dilution ratio of the resuspended cells required for inoculating a fixed number of cells into 80 µL of the medium in each culture well was calculated based on the cell density information. After the resuspended cells were diluted with the corresponding medium, 80 µL of the diluted cells were transferred to columns 2-11 of rows B-G of a 96-well cell culture plate using an Eppendorf multi-channel pipette (60 wells in total for each plate). The cell culture plate was incubated overnight in an incubator at 37 °C with 5% CO2.
(§3) The test compound and the combination compound were dissolved in DMSO to give a 10 mM solution for later use. In the experiment, the compound was further diluted to the corresponding concentration according to the concentration designed in the experiment, and based on this concentration, serial gradient dilution was performed. Matrix study was performed at 8 or 7 dose concentrations of the test compound (the lowest dose concentration was 0, and other specific concentration values were shown in FIG. 1) and 7 or 8 dose concentrations of the combination compound (the lowest dose concentration was 0, and other specific concentration values were shown in FIG. 1). 10 µL of each of the diluted combination compound and test compound was added to the corresponding cell plate well, such that the final concentration of DMSO was 0.25%. The test compound and the cells were incubated in an incubator at 37 °C with 5% CO2 for another 7 days, Cell Titer Glo was added at 50 µL/well, and the luminescence value of each well was read using an Envision microplate reader.
(§4) The luminescence value of the well containing only the cell medium was taken as the background (RLUbackground, corresponding cell survival rate to be 0%), the cell well containing only 0.25% DMSO without the compound was taken as the maximum signal (RLUDMSO, corresponding cell survival rate to be 100%), and the luminescence values of the remaining wells containing cells and compounds at different concentrations were taken as RLUsample. The survival rate of each cell well was calculated as follows: Survival rate (%) = (RLUsample−RLUbackground)/(RLUDMSO−RLUbackground) × 100% [formula]
(§5) The interaction between drugs (synergistic, independent, or antagonistic) was statistically analyzed by the Bliss Independence model using Combenefit software (Bliss, C.I., Bacteriol. Rev., 1956, 20, 243-258). The model assumes that each drug acts independently. The theoretical expected action curve of the combination was calculated from the following equation: Bliss effect = effect A + effect B−effect A × effect B [formula] wherein effect A and effect B are the effects of drugs A and B alone at specific concentrations. […]

Another data set relates to A549. Described as above. Type of data set: cell-based. As for the experimental part: as §1, §2, §3, §4, §5
The test system of another data set is DLD1. Described as above. Type of data set: cell-based. As to conditions: combination with SN38 (Topoisomerase I inhibitor). As for the experimental part: as §1, §2, §3, §4, §5
The test system of a further data set is NCI-H82. The description is as above. Type of data set: cell-based, human. As to conditions: combination with Etoposide (Topoisomerase II inhibitor). Here is the method:
as §1, §2, §3, §4, §5

The test system of the next data set is SKOV3. Described as above. Type of data set: cell-based, human. As for the experimental part:
as §1, §2, §3, §4, §5

In the next data set the test system is A2780. Described as above. Type of data set: cell-based, human. Here is the method: as §1, §2, §3, §4, §5
The next data set deals with Capan-1. The data set is described as above. Type of data set: cell-based, human. Here is the method:
as §1, §2, §3, §4, §5

The test system of a further data set is KURAMOCHI
Described as above. Type of data set: cell-based, human. As for the experimental part: as §1, §2, §3, §4, §5

Data set [1] concerns human colorectal adenocarcinoma DLD1 BRCA2-/- cells. Put plainly: Efficacy of combined use with olaparib in DLD1 BRCA2-/- xenograft tumor model. Type of data set: in vivo, NU/NU nude mice. As to conditions: 10 mg/kg QD intragastric in combination with 50 mg/kg olaparib QD. The source says:
The anti-tumor activity of the sodium salt of compound I used in combination with olaparib (MCE, 136925) was studied using a DLD1 BRCA2-/- subcutaneous tumor model. 32 female NU/NU nude mice (6-8 weeks old, Beijing Vital River Laboratory Animal Technology Co., Ltd.) were subcutaneously inoculated with 1 × 10^7 human colorectal adenocarcinoma DLD1 BRCA2-/- cells (Horizon- HD105-007). When the tumors grew to 80-100 mm^3, the mice were randomly divided into four groups with eight mice per group: a first group treated with vehicle control (QD) by intragastric administration, a second group treated with a 10 mg/kg solution of the sodium salt of compound I (QD) by intragastric administration, a third group treated with a 50 mg/kg olaparib solution (QD) by intragastric administration, and a fourth group treated with a 10 mg/kg solution of the sodium salt of compound I (QD) by intragastric administration and a 50 mg/kg olaparib solution (QD) by intragastric administration. The vehicle of olaparib was a solution containing 10% DMSO, 50% 2-hydroxypropyl-β-cyclodextrin (Aladdin-F2223139, 60% aqueous solution), and 40% water, the vehicle of the sodium salt of compound I was 10% (w/v) Vitamin E TPGS (Hanhong Chemical-BH-GN0100619-22 1101) aqueous solution, and the vehicle of the vehicle control group was a mixture of the vehicle of olaparib and the vehicle of the sodium salt of compound I (mixed at a volume ratio of 1:1). Mice had free access to food and water throughout the experiment.
Tumor diameters were measured twice weekly using a vernier caliper. The tumor volume (V) was calculated using the following formula: V = 0.5a × b^2, wherein a and b represent the long diameter and short diameter of the tumor, respectively.
Mouse body weight was measured twice weekly.
Two way ANOVA was used to compare the differences in tumor growth trend among groups, and a significant difference was considered when p < 0.05.

Where [2] appears, read: combination with Niraparib (PARP inhibitor).
[3] abbreviates: combination with Etoposide (Topoisomerase II inhibitor).
The mark [4] stands for this setting: combination with Doxorubicin hydrochloride (Topoisomerase II inhibitor).
Setting [5] is: combination with Paclitaxel (Tubulin inhibitor).

For `COc1ccc(Cl)cc1-c1cc(C)ncc1C(=O)Nc1nc2ncc(-c3ccc(C#N)cc3)nc2s1.[Na]` [Sodium salt of compound I, Sodium Salt of 4-(5-Chloro-2-methoxyphenyl)-N-[6-(4-cyanophenyl)thiazolo[4,5-b]pyrazin-2-yl]-6-methylnicotinamide], the Combined effect result in the data set on DLD-1 BRCA2 (-/-) (combination with AZD5305 (PARP inhibitor)), with DLD-1 BRCA2 (-/-) (setting [2]), with A549 (combination with Cisplatin (Platinum derivative)), with A549 (setting [3]), with DLD1 and with NCI-H82 was “Synergistic” each time. Moreover, the Combined effect result with SKOV3 (setting [4]), in the data set with SKOV3 (setting [5]), in the data set on A2780 (setting [4]), with A2780 (setting [3]), in the data set on A2780 (setting [5]) and in the data set with Capan-1 (setting [2]) was “Synergistic” throughout. The Combined effect result in the data set on Capan-1 (combination with Olaparib (PARP inhibitor)), in the data set on Capan-1 (combination with RP3500 (ATR inhibitor)), in the data set on Capan-1 (combination with Talazoparib (PARP inhibitor)), with KURAMOCHI (setting [4]) and in the data set with KURAMOCHI (setting [5]) was “Synergistic” each time. Moreover, the “anti-tumor effect of combination with olaparib” value in data set [1] is reported as “strong synergistic anti-tumor effect”. The tumor volume result in data set [1] (versus either single drug group) is “significantly lower”. Besides, in data set [1] (condition of mice, body weight), the safety entry was “good safety”.
